# Experimental data reported in ChEMBL document CHEMBL4495565, “Cytopathic SARS-Cov2 screening on VERO-E6 cells in a large repurposing effort” (2020).
# Where “and” joins values, the source holds several entries; their conditions need not be identical. Equal entries are not always repeated. Structures can show the parent of a compound that is named as a salt. Peptide text beside a SMILES is read from it. * marks the point of attachment. Cbz = O=C(OCc1ccccc1)*
# Test system: not listed separately
# Test: in vitro
# Conditions: chlorocebus sabaeus, VERO-E6 cells, Selectivity index
row,Structure (SMILES),selectivity ratio
1,CC(C)(C)c1ccccc1Oc1ncccc1NC(=O)Nc1ccc(OC(F)(F)F)cc1,1.41
2,COCCNCc1ccc(-c2cc3nccc(Oc4ccc(NC(=S)NC(=O)Cc5ccc(F)cc5)cc4F)c3s2)nc1 [GLESATINIB],0.62
3,Cc1[nH]c(/C=C2\C(=O)Nc3ccc(S(=O)(=O)N(C)c4cccc(Cl)c4)cc32)c(C)c1C(=O)N1CCN(C)CC1,0.96
4,Clc1ccccc1CNC[C@H]1CC[C@H](CNCc2ccccc2Cl)CC1,1.36
5,CC(C)C[C@H](NC(=O)[C@@H](NC(=O)c1cccc(-c2ccccc2)n1)[C@@H](C)O)B(O)O [DELANZOMIB],0.35
6,Cc1cc2c(F)c(Oc3ncnn4cc(OC[C@@H](C)OC(=O)[C@H](C)N)c(C)c34)ccc2[nH]1 [BRIVANIB ALANINATE],0.4
7,COC(=O)C[C@@](O)(CCC(C)(C)O)C(=O)O[C@@H]1C(OC)=C[C@]23CCCN2CCc2cc4c(cc2[C@@H]13)OCO4,2.46
8,COc1ccc(C[C@H]2NC[C@H](O)[C@H]2OC(C)=O)cc1 [ANISOMYCIN],1.11
9,CCN(CC)Cc1cc(Nc2ccnc3cc(Cl)ccc23)ccc1O [AMODIAQUINE],4.12
10,Nc1ncnc2c1c(-c1cnc3[nH]ccc3c1)nn2C1CCCC1,0.76
11,CC(C)(C)c1cc(C=C(C#N)C#N)cc(Br)c1O,1.18
12,COc1cc(C[C@H]2c3cc(OC)c(OC)cc3CCN2C)c(Oc2cc3c(cc2OC)-c2c(OC)c(OC)cc4c2[C@H](C3)N(C)CC4)cc1OC [THALICARPINE],8.53
13,O=c1cc(N2CCOCC2)oc2c(-c3cccc4c3sc3ccccc34)cccc12,0.15
14,CC(C)[C@H]1c2ccc(F)cc2CC[C@@]1(CCN(C)CCCc1nc2ccccc2[nH]1)OC(=O)C1CC1,0.99
15,Cc1cnc(Nc2ccc(F)cc2Cl)nc1-c1c[nH]c(C(=O)N[C@H](CO)c2cccc(Cl)c2)c1,0.35
16,CC(C)(C)C(=O)/C(=C/c1cccc([N+](=O)[O-])c1)n1cncn1,1.23
17,Cc1ccc(Nc2ncc3c(n2)N(C)C(=O)N(c2cc(NC(=O)c4cccc(C(F)(F)F)c4)ccc2C)C3)cn1,0.12
18,COc1ccc(CNc2nc(N(CCO)CCO)nc3c2ncn3C(C)C)cc1,0.82
19,N#Cc1cc2c(OCC(O)CN3CCN(C(c4ccccc4)c4ccccc4)CC3)cccc2[nH]1 (racemic; form 1),0.49
20,Cc1c(CN2CCN(C(=O)[C@H](C)O)CC2)sc2c(N3CCOCC3)nc(-c3cnc(N)nc3)nc12 [APITOLISIB],0.22

# Same assay, conditions: chlorocebus sabaeus, vero c1008, Selectivity index
row,Structure (SMILES),selectivity ratio
1,CC(C)n1nc(-c2cc3cc(O)ccc3[nH]2)c2c(N)ncnc21,0.05
2,O[C@@H](COc1cccc2ncccc12)CN1CCN([C@@H]2c3ccccc3[C@@H]3[C@H](c4ccccc42)C3(F)F)CC1 [ZOSUQUIDAR TRIHYDROCHLORIDE],1.08
3,O=C(C1CC1)N1CC[C@@H](Cc2n[nH]c(=O)n2-c2ccc(-c3ccc4occc4c3)cc2)C1,1.94
4,CN(C)c1cccc(-c2c3c(=O)n(-c4ccccc4Cl)[nH]c3cc(=O)n2C)c1 [SETANAXIB],1.26

# Test system: not listed separately
# Test: in vitro
# Conditions: chlorocebus sabaeus, VERO-E6 cells (Vero C1008), uninfected, CC50
row,Structure (SMILES),CC50 at 48 h [µM]
1,CC(C)C[C@@H](C=O)NC(=O)[C@H](CC(C)C)NC(=O)[C@H](CC(C)C)NC(=O)OCc1ccccc1 [MG-132] (Cbz-Leu-Leu-Leu-aldehyde),2.9
2,CC(C)(C)c1ccccc1Oc1ncccc1NC(=O)Nc1ccc(OC(F)(F)F)cc1,9.9
3,COCCNCc1ccc(-c2cc3nccc(Oc4ccc(NC(=S)NC(=O)Cc5ccc(F)cc5)cc4F)c3s2)nc1 [GLESATINIB],0.64
4,Cc1[nH]c(/C=C2\C(=O)Nc3ccc(S(=O)(=O)N(C)c4cccc(Cl)c4)cc32)c(C)c1C(=O)N1CCN(C)CC1,10.4
5,Clc1ccccc1CNC[C@H]1CC[C@H](CNCc2ccccc2Cl)CC1,30.9
6,CC(C)C[C@H](NC(=O)[C@@H](NC(=O)c1cccc(-c2ccccc2)n1)[C@@H](C)O)B(O)O [DELANZOMIB],0.46
7,Cc1cc2c(F)c(Oc3ncnn4cc(OC[C@@H](C)OC(=O)[C@H](C)N)c(C)c34)ccc2[nH]1 [BRIVANIB ALANINATE],2.58
8,COC(=O)C[C@@](O)(CCC(C)(C)O)C(=O)O[C@@H]1C(OC)=C[C@]23CCCN2CCc2cc4c(cc2[C@@H]13)OCO4,1.94
9,CCN(CC)Cc1cc(Nc2ccnc3cc(Cl)ccc23)ccc1O [AMODIAQUINE],16.8
10,Nc1nc2nn[nH]c2c(=O)[nH]1 [8-AZAGUANINE],10.4
11,Nc1ncnc2c1c(-c1cnc3[nH]ccc3c1)nn2C1CCCC1,8.95
12,CC(C)(C)c1cc(C=C(C#N)C#N)cc(Br)c1O,10.4
13,COc1cc(C[C@H]2c3cc(OC)c(OC)cc3CCN2C)c(Oc2cc3c(cc2OC)-c2c(OC)c(OC)cc4c2[C@H](C3)N(C)CC4)cc1OC [THALICARPINE],> 33
14,O=c1cc(N2CCOCC2)oc2c(-c3cccc4c3sc3ccccc34)cccc12,0.58
15,CC(C)[C@H]1c2ccc(F)cc2CC[C@@]1(CCN(C)CCCc1nc2ccccc2[nH]1)OC(=O)C1CC1,8.13
16,Cc1cnc(Nc2ccc(F)cc2Cl)nc1-c1c[nH]c(C(=O)N[C@H](CO)c2cccc(Cl)c2)c1,1.92
17,CC(C)(C)C(=O)/C(=C/c1cccc([N+](=O)[O-])c1)n1cncn1,5.31
18,Cc1ccc(Nc2ncc3c(n2)N(C)C(=O)N(c2cc(NC(=O)c4cccc(C(F)(F)F)c4)ccc2C)C3)cn1,0.61
19,COc1ccc(CNc2nc(N(CCO)CCO)nc3c2ncn3C(C)C)cc1,6.49
20,N#Cc1cc2c(OCC(O)CN3CCN(C(c4ccccc4)c4ccccc4)CC3)cccc2[nH]1 (racemic; form 1),12.7
21,Cc1c(CN2CCN(C(=O)[C@H](C)O)CC2)sc2c(N3CCOCC3)nc(-c3cnc(N)nc3)nc12 [APITOLISIB],0.5

# Same assay, conditions: chlorocebus sabaeus, vero c1008, CC50
row,Structure (SMILES),CC50 at 48 h [µM]
1,CC(C)n1nc(-c2cc3cc(O)ccc3[nH]2)c2c(N)ncnc21,1.63
2,O[C@@H](COc1cccc2ncccc12)CN1CCN([C@@H]2c3ccccc3[C@@H]3[C@H](c4ccccc42)C3(F)F)CC1 [ZOSUQUIDAR TRIHYDROCHLORIDE],9.11
3,O=C(C1CC1)N1CC[C@@H](Cc2n[nH]c(=O)n2-c2ccc(-c3ccc4occc4c3)cc2)C1,> 33
4,COc1ccc(C[C@H]2NC[C@H](O)[C@H]2OC(C)=O)cc1 [ANISOMYCIN],0.1
5,CN(C)c1cccc(-c2c3c(=O)n(-c4ccccc4Cl)[nH]c3cc(=O)n2C)c1 [SETANAXIB],14.8

# Test system: SARS-CoV-2
# Test: microbe, parasite or virus in culture
# Format: functional, organism-based, Chlorocebus sabaeus, Vero C1008
# Conditions: Severe acute respiratory syndrome coronavirus 2, Vero C1008, 48 h
row,Structure (SMILES),IC50 [µM]
1,CC(C)(C)c1ccccc1Oc1ncccc1NC(=O)Nc1ccc(OC(F)(F)F)cc1,7
2,COCCNCc1ccc(-c2cc3nccc(Oc4ccc(NC(=S)NC(=O)Cc5ccc(F)cc5)cc4F)c3s2)nc1 [GLESATINIB],1.04
3,Cc1[nH]c(/C=C2\C(=O)Nc3ccc(S(=O)(=O)N(C)c4cccc(Cl)c4)cc32)c(C)c1C(=O)N1CCN(C)CC1,10.9
4,Clc1ccccc1CNC[C@H]1CC[C@H](CNCc2ccccc2Cl)CC1,22.7
5,CC(C)C[C@H](NC(=O)[C@@H](NC(=O)c1cccc(-c2ccccc2)n1)[C@@H](C)O)B(O)O [DELANZOMIB],1.3
6,CC(C)n1nc(-c2cc3cc(O)ccc3[nH]2)c2c(N)ncnc21,> 33
7,O[C@@H](COc1cccc2ncccc12)CN1CCN([C@@H]2c3ccccc3[C@@H]3[C@H](c4ccccc42)C3(F)F)CC1 [ZOSUQUIDAR TRIHYDROCHLORIDE],8.4
8,Cc1cc2c(F)c(Oc3ncnn4cc(OC[C@@H](C)OC(=O)[C@H](C)N)c(C)c34)ccc2[nH]1 [BRIVANIB ALANINATE],6.5
9,COC(=O)C[C@@](O)(CCC(C)(C)O)C(=O)O[C@@H]1C(OC)=C[C@]23CCCN2CCc2cc4c(cc2[C@@H]13)OCO4,0.79
10,O=C(C1CC1)N1CC[C@@H](Cc2n[nH]c(=O)n2-c2ccc(-c3ccc4occc4c3)cc2)C1,17
11,COc1ccc(C[C@H]2NC[C@H](O)[C@H]2OC(C)=O)cc1 [ANISOMYCIN],0.09
12,CCN(CC)Cc1cc(Nc2ccnc3cc(Cl)ccc23)ccc1O [AMODIAQUINE],4.07
13,Nc1ncnc2c1c(-c1cnc3[nH]ccc3c1)nn2C1CCCC1,11.8
14,CC(C)(C)c1cc(C=C(C#N)C#N)cc(Br)c1O,8.77
15,COc1cc(C[C@H]2c3cc(OC)c(OC)cc3CCN2C)c(Oc2cc3c(cc2OC)-c2c(OC)c(OC)cc4c2[C@H](C3)N(C)CC4)cc1OC [THALICARPINE],3.87
16,O=c1cc(N2CCOCC2)oc2c(-c3cccc4c3sc3ccccc34)cccc12,3.79
17,CN(C)c1cccc(-c2c3c(=O)n(-c4ccccc4Cl)[nH]c3cc(=O)n2C)c1 [SETANAXIB],11.8
18,CC(C)[C@H]1c2ccc(F)cc2CC[C@@]1(CCN(C)CCCc1nc2ccccc2[nH]1)OC(=O)C1CC1,8.21
19,Cc1cnc(Nc2ccc(F)cc2Cl)nc1-c1c[nH]c(C(=O)N[C@H](CO)c2cccc(Cl)c2)c1,5.54
20,CC(C)(C)C(=O)/C(=C/c1cccc([N+](=O)[O-])c1)n1cncn1,4.33
21,Cc1ccc(Nc2ncc3c(n2)N(C)C(=O)N(c2cc(NC(=O)c4cccc(C(F)(F)F)c4)ccc2C)C3)cn1,5.21
22,COc1ccc(CNc2nc(N(CCO)CCO)nc3c2ncn3C(C)C)cc1,7.95
23,N#Cc1cc2c(OCC(O)CN3CCN(C(c4ccccc4)c4ccccc4)CC3)cccc2[nH]1 (racemic; form 1),25.6
24,Cc1c(CN2CCN(C(=O)[C@H](C)O)CC2)sc2c(N3CCOCC3)nc(-c3cnc(N)nc3)nc12 [APITOLISIB],2.31

# Same assay, conditions: vero c1008
row,Structure (SMILES),IC50
1,CC(C)C[C@@H](C=O)NC(=O)[C@H](CC(C)C)NC(=O)[C@H](CC(C)C)NC(=O)OCc1ccccc1 [MG-132] (Cbz-Leu-Leu-Leu-aldehyde),0.99 µM
2,Nc1nc2nn[nH]c2c(=O)[nH]1 [8-AZAGUANINE],3.72 µM and 10.3 µM

# Test system: Vero C1008
# Test: not given
# Conditions: chlorocebus sabaeus, vero c1008, 48 h
row,Structure (SMILES),CC50 [µM]
1,CC(C)C[C@@H](C=O)NC(=O)[C@H](CC(C)C)NC(=O)[C@H](CC(C)C)NC(=O)OCc1ccccc1 [MG-132] (Cbz-Leu-Leu-Leu-aldehyde),3.04
2,Nc1nc2nn[nH]c2c(=O)[nH]1 [8-AZAGUANINE],11.2
